Where a name gives a salt, the structure may show the parent alone.
Molecular target: T1, substance P receptor (Homo sapiens, UniProt P25103)
T1 construct: The receptor was prepared from human lymphoblast cells (IM-9); endogenous in cells; host or cells: IM-9 human lymphoblast cells (membrane fraction, 100,000xG precipitate)
Assay: Radioligand receptor binding inhibitory activity (125I-BHSP binding, receptor from IM-9 cells)
Details: receptor from human lymphoblast cells (IM-9); radioligand 125I-BHSP; 25° C., 30 min
Method: Radioligand Receptor Binding Inhibitory Activity (Binding Inhibitory Activity Using Receptor from Human Lymphoblast Cells (IM-9))
The method of M. A. Cascieri et al., “Molecular Pharmacology, vol. 42, p. 458 (1992)” was modified and used. The receptor was prepared from human lymphoblast cells (IM-9).
IM-9 cells (2×10^5 cells/mL) were inoculated and incubated for 3 days, which was then subjected to centrifugation for 10 min. at 500×G to give cell pellets. The obtained pellets were washed with PBS (GIBCO), disrupted in buffer A (50 mM tris.hydrochloric acid buffer (pH 7.4) containing 120 mM sodium chloride, 5 mM potassium chloride, 2 μg/mL chymostatin, 40 μg/mL bacitracin, 40 μg/mL APMSF, 1 mM ethylenediamine tetra acetic acid) using a polytron.homogenizer [manufactured by Kinematika, Germany], and centrifuged at 100,000×G for 40 min. The precipitated fraction was suspended in buffer B (50 mM Tris-HCl (pH 7.4), 0.02% bovine serum albumin, 2 μg/mL chymostatin, 40 μg/mL bacitracin, 40 μg/mL APMSF, 3 mM MgCl2), which was then cryopreserved (−80° C.) as a receptor specimen.
Buffer B (50 μL) was added to a 96 well microassay plate (CORNING). Thereto was added 50 μL of membrane preparation suspended in buffer B at 250 μg/mL. A measurement buffer (50 μL) containing 2% dimethyl sulfoxide was added to examine total binding; 4 μM unlabeled SP (50 μL) diluted with a measurement buffer containing 2% dimethyl sulfoxide was added to examine non-specific binding; and 50 μL of a test compound (containing 2% dimethyl sulfoxide) diluted with a measurement buffer was added to examine binding inhibitory activity of the test compound. In addition, […] ^125I-BHSP solution (50 μL) was added to each well.
After reaction at 25° C. for 30 min, the cells were rapidly filtered through a GF/C filter plate (PerkinElmer) using a cell harvester (manufactured by PerkinElmer) to quench the reaction, and washed 10 times with 250 μL of 50 mM tris-HCl buffer (pH 7.4) containing 0.02% bovine serum albumin. The GF/C filter plate was dried, MicroScinti 0 (20 μL) was added, and the radioactivity was measured with TopCount (manufactured by PerkinElmer). The GF/C filter plate was immersed in 0.3% polyethylene imine for one day before use.
Specific binding is a value obtained by subtracting nonspecific binding from total binding. The binding inhibitory activity of a test compound is shown by a ratio of a value obtained by subtracting a measurement value with addition of a test compound from the total binding, relative to specific binding.
The antagonistic activity of the compounds obtained in the Examples was determined as a concentration necessary for causing 50% inhibition (IC50 value) under the above-described conditions, and the results shown in Table 34 were obtained.
The radio ligand means substance P labeled with [^125I].

T1 sequence (P25103 whole entry): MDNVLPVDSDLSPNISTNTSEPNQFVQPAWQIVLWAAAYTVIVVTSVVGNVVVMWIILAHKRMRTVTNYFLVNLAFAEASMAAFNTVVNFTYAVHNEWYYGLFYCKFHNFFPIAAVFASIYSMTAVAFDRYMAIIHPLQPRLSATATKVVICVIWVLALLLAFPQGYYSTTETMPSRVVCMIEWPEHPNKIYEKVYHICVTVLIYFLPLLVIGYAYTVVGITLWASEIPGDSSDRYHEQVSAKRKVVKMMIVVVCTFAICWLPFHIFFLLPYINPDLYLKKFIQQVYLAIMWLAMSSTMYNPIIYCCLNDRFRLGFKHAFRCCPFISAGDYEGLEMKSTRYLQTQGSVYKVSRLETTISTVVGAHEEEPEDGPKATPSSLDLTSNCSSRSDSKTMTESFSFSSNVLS

Compound	IC50 [nM]
Cc1cc(F)ccc1[C@@H]1CN(CCC(C)(C)O)CC[C@H]1C(=O)N(C)Cc1cc(C(F)(F)F)cc(C(F)(F)F)c1 (relative stereo) [Example 123, (3R*,4R*)—N-[3,5-bis(trifluoromethyl)benzyl]-3-(4-fluoro-2-methylphenyl)-1-(3-hydroxy-3-methylbutyl)-N-methylpiperidine-4-carboxamide monohydrochloride]	0.025
Cc1cc(F)ccc1[C@@H]1CN(C2CCN(C(=O)C(N)=O)CC2)CC[C@H]1C(=O)N(C)Cc1cc(C(F)(F)F)cc(C(F)(F)F)c1 (relative stereo) [Example 108, (3R*,4R*)-1′-[amino(oxo)acetyl]-N-[3,5-bis(trifluoromethyl)benzyl]-3-(4-fluoro-2-methylphenyl)-N-methyl-1,4′-bipiperidine-4-carboxamide monohydrochloride]	0.026
Cc1cc(F)ccc1[C@H]1CN(C(=O)C(N)=O)CC[C@@H]1C(=O)N(C)[C@@H](C)c1cc(C(F)(F)F)cc(C(F)(F)F)c1 [Example 178, (3S,4S)-1-[amino(oxo)acetyl]-N-{(1S)-1-[3,5-bis(trifluoromethyl)phenyl]ethyl}-3-(4-fluoro-2-methylphenyl)-N-methylpiperidine-4-carboxamide]	0.017
Cc1cc(F)ccc1[C@H]1CN(C(=O)CN2C(=O)OC(C)(C)C2=O)CC[C@@H]1C(=O)N(C)Cc1cc(C(F)(F)F)cc(C(F)(F)F)c1 [Example 148, (3S,4S)—N-[3,5-bis(trifluoromethyl)benzyl]-1-[(5,5-dimethyl-2,4-dioxo-1,3-oxazolidin-3-yl)acetyl]-3-(4-fluoro-2-methylphenyl)-N-methylpiperidine-4-carboxamide]	0.06
Cc1cc(F)ccc1[C@@H]1CN(CC(N)=O)CC[C@H]1C(=O)N(Cc1cc(C(F)(F)F)cc(C(F)(F)F)c1)C1CC1 (relative stereo) [Example 169, (3R*,4R*)-1-(2-amino-2-oxoethyl)-N-[3,5-bis(trifluoromethyl)benzyl]-N-cyclopropyl-3-(4-fluoro-2-methylphenyl)piperidine-4-carboxamide monohydrochloride]	0.077
Cc1cc(F)ccc1[C@H]1CN(C(=O)C2CCN(C(=O)[C@@H](C)O)CC2)CC[C@@H]1C(=O)N(C)Cc1cc(C(F)(F)F)cc(C(F)(F)F)c1 [Example 151, (3S,4S)—N-[3,5-bis(trifluoromethyl)benzyl]-3-(4-fluoro-2-methylphenyl)-1-({1-[(2R)-2-hydroxypropanoyl]piperidin-4-yl}carbonyl)-N-methylpiperidine-4-carboxamide]	0.02
Cc1ccccc1[C@H]1CN(C(=O)CN2C(=O)OC(C)(C)C2=O)CC[C@@H]1C(=O)N(C)[C@@H](C)c1cc(C(F)(F)F)cc(C(F)(F)F)c1 [Example 30, (3S,4S)—N-{(1S)-1-[3,5-bis(trifluoromethyl)phenyl]ethyl}-1-[(5,5-dimethyl-2,4-dioxo-1,3-oxazolidin-3-yl)acetyl]-N-methyl-3-(2-methylphenyl)piperidine-4-carboxamide]	0.057
Cc1ccsc1C1CN(C(=O)C2CCN(C(=O)CO)CC2)CCC1C(=O)N(C)[C@@H](C)c1cc(C(F)(F)F)cc(C(F)(F)F)c1 (single isomer, unassigned; more polar) [Example 176, (3R*,4S*)—N-{(1S)-1-[3,5-bis(trifluoromethyl)phenyl]ethyl}-1-[(1-glycoloylpiperidin-4-yl)carbonyl]-N-methyl-3-(3-methyl-2-thienyl)piperidine-4-carboxamide (more polar)]	0.051
Cc1cc(F)ccc1[C@H]1CN(C(=O)c2cncnc2)CC[C@@H]1C(=O)N(C)[C@@H](C)c1cc(C(F)(F)F)cc(C(F)(F)F)c1 [Example 158, (3S,4S)—N-{(1S)-1-[3,5-bis(trifluoromethyl)phenyl]ethyl}-3-(4-fluoro-2-methylphenyl)-N-methyl-1-(pyrimidin-5-ylcarbonyl)piperidine-4-carboxamide]	0.033
Cc1ccccc1[C@H]1CN(C(=O)C2CCN(C(=O)[C@H](C)O)CC2)CC[C@@H]1C(=O)N(C)Cc1cc(C(F)(F)F)cc(C(F)(F)F)c1 [Example 28, (3S,4S)—N-(3,5-bis(trifluoromethyl)benzyl]-1-({1-[(2S)-2-hydroxypropanoyl]piperidin-4-yl}carbonyl)-N-methyl-3-(2-methylphenyl)piperidine-4-carboxamide]	0.022
Cc1cc(F)ccc1[C@H]1CN(S(C)(=O)=O)CC[C@@H]1C(=O)N(C)[C@@H](C)c1cc(C(F)(F)F)cc(C(F)(F)F)c1 [Example 179, (3S,4S)—N-{(1S)-1-[3,5-bis(trifluoromethyl)phenyl]ethyl}-3-(4-fluoro-2-methylphenyl)-N-methyl-1-(methylsulfonyl)piperidine-4-carboxamide]	0.049
Cc1cc(F)ccc1[C@H]1CN(C(=O)C2CCN(C(=O)[C@H](C)O)CC2)CC[C@@H]1C(=O)N(C)Cc1cc(C(F)(F)F)cc(C(F)(F)F)c1 [Example 150, (3S,4S)—N-[3,5-bis(trifluoromethyl)benzyl]-3-(4-fluoro-2-methylphenyl)-1-({1-[(2S)-2-hydroxypropanoyl]piperidin-4-yl}carbonyl)-N-methylpiperidine-4-carboxamide]	0.033
Cc1cc(F)ccc1[C@H]1CN(C(=O)CCS(C)(=O)=O)CC[C@@H]1C(=O)N(C)[C@@H](C)c1cc(C(F)(F)F)cc(C(F)(F)F)c1 [Example 160, (3S,4S)—N-{(1S)-1-[3,5-bis(trifluoromethyl)phenyl]ethyl}-3-(4-fluoro-2-methylphenyl)-N-methyl-1-[3-(methylsulfonyl)propanoyl]piperidine-4-carboxamide]	0.032
Cc1cc(F)ccc1[C@H]1CN(C(=O)C2CCN(C(=O)CO)CC2)CC[C@@H]1C(=O)N(C)[C@@H](C)c1cc(C(F)(F)F)cc(C(F)(F)F)c1 [Example 152, (3S,4S)—N-{(1S)-1-[3,5-bis(trifluoromethyl)phenyl]ethyl}-3-(4-fluoro-2-methylphenyl)-1-[(1-glycoloylpiperidin-4-yl)carbonyl]-N-methylpiperidine-4-carboxamide]	0.015
Cc1cc(F)ccc1[C@@H]1CN(CC(=O)NC2CC2)CC[C@H]1C(=O)N(C)Cc1cc(C(F)(F)F)cc(C(F)(F)F)c1 (relative stereo) [Example 103, (3R*,4R*)—N-[3,5-bis(trifluoromethyl)benzyl]-1-[2-(cyclopropylamino)-2-oxoethyl]-3-(4-fluoro-2-methylphenyl)-N-methylpiperidine-4-carboxamide monohydrochloride]	0.096
Cc1cc(F)ccc1[C@H]1CN(CCS(C)(=O)=O)CC[C@@H]1C(=O)N(C)[C@@H](C)c1cc(C(F)(F)F)cc(C(F)(F)F)c1 [Example 180, (3S,4S)—N-{(1S)-1-[3,5-bis(trifluoromethyl)phenyl]ethyl}-3-(4-fluoro-2-methylphenyl)-N-methyl-1-[2-(methylsulfonyl)ethyl]piperidine-4-carboxamide monohydrochloride]	0.023
Cc1cc(F)ccc1[C@@H]1CN(S(=O)(=O)CCN2CCOCC2)CC[C@H]1C(=O)N(C)Cc1cc(C(F)(F)F)cc(C(F)(F)F)c1 (relative stereo) [Example 139, (3R*,4R*)—N-[3,5-bis(trifluoromethyl)benzyl]-3-(4-fluoro-2-methylphenyl)-N-methyl-1-[(2-morpholin-4-ylethyl)sulfonyl]piperidine-4-carboxamide monohydrochloride]	0.037
Cc1cc(F)ccc1[C@@H]1CN(CC(=O)N2CCC(O)CC2)CC[C@H]1C(=O)N(C)Cc1cc(C(F)(F)F)cc(C(F)(F)F)c1 (relative stereo) [Example 104, (3R*,4R*)—N-[3,5-bis(trifluoromethyl)benzyl]-3-(4-fluoro-2-methylphenyl)-1-[2-(4-hydroxypiperidin-1-yl)-2-oxoethyl]-N-methylpiperidine-4-carboxamide monohydrochloride]	0.042
Cc1cc(F)ccc1[C@@H]1CN(C(C)(C)C(N)=O)CC[C@H]1C(=O)N(C)Cc1cc(C(F)(F)F)cc(C(F)(F)F)c1 (relative stereo) [Example 113, (3R*,4R*)-1-(2-amino-1,1-dimethyl-2-oxoethyl)-N-[3,5-bis(trifluoromethyl)benzyl]-3-(4-fluoro-2-methylphenyl)-N-methylpiperidine-4-carboxamide monohydrochloride]	0.061

— US20080275085A1, “Piperidine derivative and use thereof” (priority 2007, published 2008)
